Assay results as given in ChEMBL document CHEMBL4265949, “Design, synthesis and biological evaluation of 2-substituted 3-hydroxy-6-methyl-4H-pyran-4-one derivatives as Pseudomonas aeruginosa biofilm inhibitors” (Eur J Med Chem, 2018).
Active and inactive are the calls of the source. No cut-off for these calls is given here.

Experiments:
Pseudomonas aeruginosa [1] = experiment: Inhibition of biofilm formation of Pseudomonas aeruginosa PAO1 at 20 uM after 24 hrs by crystal violet staining based assay relative to control; format: functional; conditions: PAO1, 24 h
Pseudomonas aeruginosa [2] = experiment: Antibacterial activity against Pseudomonas aeruginosa PAO1 recorded every 10 mins for 15 hrs by broth micro dilution method; format: functional
[3] = molecular target: T1, Anthranilate--CoA ligase (Pseudomonas aeruginosa (strain ATCC 15692 / DSM 22644 / CIP 104116 /JCM 14847 / LMG 12228 / 1C / PRS 101 / PAO1)) (UniProt Q9I4X3); experiment: Inhibition of Pseudomonas aeruginosa PAO1 GFP-fused quorum sensing pqsA assessed as decrease in pyocyanin production
T1 sequence (whole entry): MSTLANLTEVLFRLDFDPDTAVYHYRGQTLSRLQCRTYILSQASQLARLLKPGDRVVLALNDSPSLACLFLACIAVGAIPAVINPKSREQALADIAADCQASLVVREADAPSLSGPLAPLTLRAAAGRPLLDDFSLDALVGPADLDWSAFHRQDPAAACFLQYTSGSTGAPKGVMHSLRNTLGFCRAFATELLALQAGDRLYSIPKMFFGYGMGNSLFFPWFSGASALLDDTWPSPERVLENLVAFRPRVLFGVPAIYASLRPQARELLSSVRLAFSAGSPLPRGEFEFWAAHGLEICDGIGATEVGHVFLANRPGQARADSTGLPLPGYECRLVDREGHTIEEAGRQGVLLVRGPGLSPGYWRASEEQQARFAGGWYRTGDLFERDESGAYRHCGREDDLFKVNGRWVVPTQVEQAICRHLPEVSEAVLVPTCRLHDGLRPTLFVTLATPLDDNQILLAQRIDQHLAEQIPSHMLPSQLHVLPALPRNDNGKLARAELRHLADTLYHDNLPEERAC

Pseudomonas aeruginosa [4] = experiment: Inhibition of biofilm formation of Pseudomonas aeruginosa PAO1 after 24 hrs by confocal laser scanning microscopy; format: functional, organism-based
[5] = molecular target: 3-(3-hydroxydecanoyloxy)decanoate synthase (Pseudomonas aeruginosa (strain ATCC 15692 / PAO1 / 1C / PRS 101 / LMG12228)) (UniProt Q51559); experiment: Inhibition of Pseudomonas aeruginosa PAO1 GFP-fused quorum sensing rhlA up to 40 uM measured every 15 mins up to 12 hrs by GFP reporter gene assay
[6] = molecular target: 3-(3-hydroxydecanoyloxy)decanoate synthase (Pseudomonas aeruginosa (strain ATCC 15692 / PAO1 / 1C / PRS 101 / LMG12228)) (UniProt Q51559); experiment: Inhibition of Pseudomonas aeruginosa PAO1 GFP-fused quorum sensing rhlA assessed as decrease in rhamnolipid lipid levels up to 40 uM measured after 30 mins
[7] = molecular target: Elastase (Pseudomonas aeruginosa (strain ATCC 15692 / PAO1 / 1C / PRS 101 / LMG12228)) (UniProt P14756); experiment: Inhibition of Pseudomonas aeruginosa PAO1 GFP-fused quorum sensing lasB assessed as decrease in elastase activity up to 40 uM incubated for 24 hrs recorded every 10 mins for 3 hrs
[8] = Effect on GFP (unknown origin) protein expression in Pseudomonas aeruginosa PAO1 up to 40 uM after 12 hrs by GFP reporter gene assay; conditions: unidentified
[9] = molecular target: Elastase (Pseudomonas aeruginosa (strain ATCC 15692 / PAO1 / 1C / PRS 101 / LMG12228)) (UniProt P14756); experiment: Inhibition of Pseudomonas aeruginosa PAO1 GFP-fused quorum sensing lasB up to 40 uM measured every 15 mins up to 12 hrs by GFP reporter gene assay
RAW264.7 [10] = experiment: Cytotoxicity against mouse RAW264.7 cells assessed as decrease in cell viability at <= 2.5 uM after 24 hrs by MTT assay; format: cell-based; conditions: raw264.7, 24 h
Pseudomonas aeruginosa [11] = experiment: Inhibition of biofilm formation of Pseudomonas aeruginosa PAO1 after 24 hrs by crystal violet staining based assay; format: functional, organism-based
[12] = molecular target: T1, Anthranilate--CoA ligase (Pseudomonas aeruginosa (strain ATCC 15692 / DSM 22644 / CIP 104116 /JCM 14847 / LMG 12228 / 1C / PRS 101 / PAO1)); experiment: Inhibition of Pseudomonas aeruginosa PAO1 GFP-fused quorum sensing pqsA measured every 15 mins up to 12 hrs by GFP reporter gene assay
RAW264.7 [13] = experiment: Cytotoxicity against mouse RAW264.7 cells assessed as decrease in cell viability at 50 uM after 24 hrs by MTT assay; format: cell-based; conditions: raw264.7, 24 h
[14] = molecular target: T1, Anthranilate--CoA ligase (Pseudomonas aeruginosa (strain ATCC 15692 / DSM 22644 / CIP 104116 /JCM 14847 / LMG 12228 / 1C / PRS 101 / PAO1)); experiment: Inhibition of Pseudomonas aeruginosa PAO1 GFP-fused quorum sensing pqsA assessed as decrease in pyocyanin production at 40 uM
Pseudomonas aeruginosa [15] = experiment: Antibacterial activity against Pseudomonas aeruginosa PAO1 up to 40 uM after 13 hrs by broth micro dilution method; format: functional, organism-based
Pseudomonas aeruginosa [16] = experiment: Inhibition of biofilm formation of Pseudomonas aeruginosa PAO1 at 2.5 uM after 24 hrs by crystal violet staining based assay relative to control; format: functional; conditions: PAO1, 24 h

Chain of Elastase (Pseudomonas aeruginosa (strain ATCC 15692 / PAO1 / 1C / PRS 101 / LMG12228)) (P14756 198-498 limits assumed): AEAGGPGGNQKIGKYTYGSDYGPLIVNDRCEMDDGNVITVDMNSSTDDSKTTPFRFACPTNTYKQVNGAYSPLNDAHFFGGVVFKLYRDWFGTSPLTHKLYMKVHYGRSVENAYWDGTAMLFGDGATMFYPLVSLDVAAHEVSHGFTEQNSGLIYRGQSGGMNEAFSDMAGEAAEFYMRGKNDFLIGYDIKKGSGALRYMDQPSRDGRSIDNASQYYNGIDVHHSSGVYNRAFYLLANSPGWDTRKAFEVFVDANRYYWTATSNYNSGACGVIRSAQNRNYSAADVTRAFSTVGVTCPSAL

| SMILES | MIC (Pseudomonas aeruginosa [2]) [µM] | inhibition at 20 µM (Pseudomonas aeruginosa [1]) [%] | other results |
| --- | --- | --- | --- |
| Cc1cc(=O)c(O)c(Cc2ccc(Cl)cc2)o1 | > 512 | 34.2 | – |
| Cc1cc(=O)c(O)c(C(O)c2ccc(/C=C/c3ccccc3)cc2)o1 (stereo unspecified) | > 512 | 35.1 | – |
| Cc1cc(=O)c(O)c(C(O)c2ccc(C#CC3CCCCC3)cc2)o1 (stereo unspecified) | > 512 | 36.9 | – |
| Cc1cc(=O)c(O)c(Cc2ccc(C(F)(F)F)cc2)o1 | > 512 | 32.8 | – |
| COc1ccc(C#Cc2ccc(C(O)c3oc(C)cc(=O)c3O)cc2)cc1 (stereo unspecified) | > 512 | 26.3 | – |
| Cc1cc(=O)c(O)c(C(O)c2ccc(C#Cc3ccc(C(F)(F)F)cc3)cc2)o1 (stereo unspecified) | > 512 | 24.9 | – |
| Cc1cc(=O)c(O)c(Cc2ccc(F)cc2)o1 | > 512 | 30.5 | – |
| Cc1cc(=O)c(O)c(C(O)c2ccc(C#Cc3ccccc3)cc2)o1 (stereo unspecified) | > 512 | 30.2 | – |
| Cc1cc(=O)c(O)c(C(O)c2ccc(C#Cc3cccc(F)c3)cc2)o1 (stereo unspecified) | > 512 | 31.5 | – |
| Cc1cc(=O)c(O)c(C(O)c2ccc(OCc3ccc([N+](=O)[O-])cc3)cc2)o1 (stereo unspecified) | > 512 | 22 | – |
| Cc1cc(=O)c(O)c(C(O)c2ccc(C#Cc3ccc(F)cc3)cc2)o1 (stereo unspecified) | > 512 | 39.1 | – |
| Cc1cc(=O)c(O)c(C(O)c2ccc(-c3ccc([N+](=O)[O-])cc3)cc2)o1 (stereo unspecified) | > 512 | 48.5 | – |
| Cc1cc(=O)c(O)c(C(O)c2ccc(C#Cc3ccccn3)cc2)o1 (stereo unspecified) | > 512 | 37.7 | – |

Continued, in another order:

| MIC (Pseudomonas aeruginosa [2]) [µM] | SMILES | inhibition at 20 µM (Pseudomonas aeruginosa [1]) [%] | other results |
| --- | --- | --- | --- |
| > 512 | Cc1cc(=O)c(O)c(C(O)c2ccc(Cc3ccccc3)cc2)o1 (stereo unspecified) | 20.6 | – |
| > 512 | Cc1cc(=O)c(O)c(C(O)c2ccc(S(F)(F)(F)(F)F)cc2)o1 (stereo unspecified) | 31.7 | – |
| > 512 | Cc1cc(=O)c(O)c(C(O)c2ccc([N+](=O)[O-])cc2)o1 (stereo unspecified) | 51 | inhibition [3]: Dose-dependent effect; inhibition (Pseudomonas aeruginosa [4]): Dose-dependent effect; inhibition [5]: inactive; inhibition [6]: inactive; inhibition [7]: inactive; Activity [8]: Non-Toxic; inhibition [9]: inactive; Activity (RAW264.7 [10]): Non-Toxic; inhibition (Pseudomonas aeruginosa [11]): Dose-dependent effect; inhibition [12]: Dose-dependent effect; Activity (RAW264.7 [13]): Toxic; inhibition [14]: 60%; Activity (Pseudomonas aeruginosa [15]): inactive; inhibition at 2.5 µM (Pseudomonas aeruginosa [16]): 30% |
| > 512 | Cc1cc(=O)c(O)c(Cc2ccccc2)o1 | 27.4 | – |
| > 512 | CCCCC(O)c1oc(C)cc(=O)c1O (stereo unspecified) | 22 | – |
| > 512 | Cc1cc(=O)c(O)c(C(O)c2ccc(-c3ccccc3)cc2)o1 (stereo unspecified) | 3.26 | – |
| > 512 | CCCCCCCC(O)c1oc(C)cc(=O)c1O (stereo unspecified) | 15.8 | – |
| > 512 | Cc1cc(=O)c(O)c(C(O)c2cccc(Br)c2)o1 (stereo unspecified) | 5.67 | – |
| > 512 | Cc1cc(=O)c(O)c(C(O)c2ccc(-n3ccnc3)cc2)o1 (stereo unspecified) | 17.3 | – |
| > 512 | CCCCCCC(O)c1oc(C)cc(=O)c1O (stereo unspecified) | 41.5 | – |
| > 512 | Cc1cc(=O)c(O)c(C(O)c2ccc(CCc3ccccc3)cc2)o1 (stereo unspecified) | 28.7 | – |
| > 512 | CCCC(O)c1oc(C)cc(=O)c1O (stereo unspecified) | 33.2 | – |
| > 512 | CCCCCC(O)c1oc(C)cc(=O)c1O (stereo unspecified) | 44.6 | – |
| > 512 | Cc1cc(=O)c(O)c(C(O)c2ccccc2F)o1 (stereo unspecified) | 5.34 | – |
| > 512 | Cc1cc(=O)c(O)c(C(O)c2cccc(F)c2)o1 (stereo unspecified) | 12.3 | – |
| > 512 | CSCCC(O)c1oc(C)cc(=O)c1O (stereo unspecified) | 25.9 | – |
| > 512 | Cc1cc(=O)c(O)c(C(O)c2ccc(OCc3ccccc3)cc2)o1 (stereo unspecified) | 22 | – |
| > 512 | Cc1cc(=O)c(O)c(C(O)c2ccccc2Br)o1 (stereo unspecified) | 9.04 | – |
